For data set [1], the system named is zebrafish larvae. Description: Bioconcentration factors (BCF) of PFAS in zebrafish larvae. The settings on record: zebrafish larvae, 120 hpf, three replicates; for BCF 0.5µM: 0.5 µM exposure; for BCF 5µM: 5 µM exposure. The protocol:
Zebrafish embryos were collected immediately after spawning, within 1 h, and subsequently transferred to 24-well plates with 1mL of facility water ( 0.036g sea salt, 0.15g sodium bicarbonate in 2L of reverse osmosis water). […] Three well replicates on the same plate were conducted for each concentration of individual chemical. […] Seven batches of experiments were performed to test all 74 PFAS. DMSO controls were incorporated in each batch of exposure experiments. Three replicates were performed for each treatment group, and 20 embryos were used for each replicate. […] For daily replenishment, 2.5mL of old exposure medium were replaced with freshly prepared medium every 24 h from 24 to 96 h post fertilization (hpf). Hatched or dead embryo numbers were recorded every 24 hpf, after which dead embryos were discarded from the growth media. Dead embryos or unhatched embryos were not used for PFAS measurement because the metabolism of PFAS might have been impacted. Zebrafish larvae collection occurred at 120 hpf. First, the larvae were anesthetized by cooling the plate in ice water (0–4°C) for ∼20 min . Then 8–15 larvae in each well were transferred into 1.5-mL tubes. Exposure media was carefully removed, and then the larvae were weighed (wet weight) after blotting excess water with a paper towel. […] Samples were stored at −80 °C until further chemical analysis was performed. Survival rate and hatching rate were calculated by summarizing all the documented data from the whole treatment duration. […] The exposure experiment of PFOSA was repeated using the same procedure as described above.
Each sample was spiked with 2μL of 0.2μg/mL mass-labeled PFAS mixture. Following this, 500μL of dichloromethane/methanol (2:1, vol/vol) was added to each sample for PFAS extraction. Larvae were then homogenized via ultrasonic probe, followed by 30 min of shaking and 30 min of sonication. Each sample was centrifuged at 14,000×g for 5 min, after which the supernatant was transferred to new tubes. Extraction was repeated once and the two supernatants were combined, evaporated under nitrogen flow, and reconstituted in 200μL of methanol for MS analysis.
Three microliters of each zebrafish extract was applied to a C18 column ( 1.5μm; 2.1mm×50mm; Thermo Scientific) and analyzed using a Vanquish ultra-HPLC system (Thermo Fisher Scientific) coupled to a Q Exactive high-resolution mass spectrometer (Thermo Fisher Scientific). The sampler and column compartments were maintained at 4°C and 40°C, respectively. The aqueous mobile phase solution (A) consisted of water, whereas the organic mobile phase solution (B) consisted of acetonitrile. […] MS data was acquired in full scan mode (100–1000 m/z, 70,000 mass resolution, 3×10^6 maximum ions collected per 100 ms), and tandem MS (MS/MS) data was recorded by all-ion fragmentation (AIF) mode. Negative and positive ion modes were carried out simultaneously at a 10-min method duration. […] An overview of the analyses conducted on the various PFAS is available in Table S2.
GraphPad Prism (version 7.0.4; GraphPad Software) and R studio (version 1.1.456; R Studio Inc.) software was used, and an ANOVA with Dunnett tests was employed to evaluate the statistical significance of the percentage hatched and mortality rate. Exponential regressions were used to determine the relationships between bioconcentration factor (BCF) and binding affinities ( Kd ) to L-FABP.

Data set [2] has as its system zebrafish embryos.
Data set [3] has as its target liver fatty acid binding protein (L-FABP). The arrangement: method as in Yang et al. 2020. The settings on record: ref Yang et al. 2020; read-out: Kd (μM), L-FABP binding affinity; cited from earlier work.
[4] abbreviates: 5μM through 120 hpf, malformation rate.
Setting [5] is: zebrafish (Danio rerio), in vivo.

Several values for one entry are separate records, joined by “and”; a condition that tells them apart may be missing. Equal values may be shown once. Read-outs that look alike come from different tables or passages of the source.

What is called Kd is a measure of binding affinity in units of concentration.

`O=C(O)C(F)(F)OC(F)(F)C(F)(F)OC(F)(F)C(=O)O` [compound 7, Perfluoro-3,6-dioxaoctane-1,8-dioic acid]: in data set [1], the “BCF 0.5µM” value was “NDb”. Further, in data set [2] (setting [4]), the “pericardial oedemata, Mean” value is listed as 2.22%; the “spinal curvature, Mean” value was 1.11%; the “tail dysplasia, Mean” value came out at 0.00%. In addition, the “Mortality (%)” value in data set [2] (5 µM, exposure through 120 hpf) is 1.1%.

`O=C(O)C(F)(F)C(F)(F)C(F)(F)C(F)(F)C(F)(F)C(F)(F)C(F)(F)C(F)(F)F` [compound 17, Perfluorononanoic acid]: in data set [1], the “BCF 0.5µM” value worked out at 152.811 L/kg and the “BCF 5µM” value was determined as 73 ± 6.9 L/kg. Besides, the Kd in data set [3] is 4.3 µM. Further, in data set [2] (setting [4]), the “pericardial oedemata, Mean” value came out at 0.00%; the “spinal curvature, Mean” value is given as 0.00%; the “tail dysplasia, Mean” value is given as 0.00%. Moreover, in data set [2] (5 µM, exposure through 120 hpf), the “Mortality (%)” value worked out at 1.1%.

`O=C(O)C(F)(F)C(F)(F)C(F)(F)C(F)(F)C(F)(F)F` [compound 20, Perfluorohexanoic acid]: in data set [1], the “BCF 0.5µM” value is 6.647 L/kg and the “BCF 5µM” value amounted to 3.5 ± 0.64 L/kg. Further, the Kd in data set [3] is 141 µM. Moreover, in data set [2] (setting [4]), the “pericardial oedemata, Mean” value is given as 0.00%; the “spinal curvature, Mean” value is given as 0.00%; the “tail dysplasia, Mean” value was 0.00%. The “Mortality (%)” value in data set [2] (5 µM, exposure through 120 hpf) stood at 0%.

On to `O=C(/C=C(\O)C(F)(F)F)C(F)(F)F` [compound 61, 3H-Perfluoro-4-hydroxy-3-penten-2-one], for which the “BCF 5µM” value in data set [1] was 7.7 ± 2.3 L/kg. In data set [3], the Kd was 135 µM. In addition, in data set [2] (setting [5]), the “Mortality (%)” value amounted to 4.4; the “pericardial oedemata, Mean” value came to 0.00%; the “spinal curvature, Mean” value amounted to 0.00%; the “tail dysplasia, Mean” value is listed as 0.00%.

As to `O=S(=O)(O)C(F)(F)C(F)(F)C(F)(F)C(F)(F)C(F)(F)C(F)(F)C(F)(F)C(F)(F)F` [compound 46, Perfluorooctanesulfonic acid], in data set [1], the “BCF 0.5µM” value is reported as 270.546 L/kg and the “BCF 5µM” value was 91 ± 10 L/kg. Further, in data set [3], the Kd is 8.1 µM. In data set [2] (setting [4]), the “pericardial oedemata, Mean” value came to 0.00%; the “spinal curvature, Mean” value is recorded as 0.00%; the “tail dysplasia, Mean” value came to 0.00%. Besides, the “Mortality (%)” value in data set [2] (5 µM, exposure through 120 hpf) stood at 2.2%.

On to `O=C(O)C(F)(F)OC(F)(F)C(F)(F)OC(F)(F)F` [compound 54, Perfluoro-3,6-dioxaheptanoic acid], for which, in data set [1], the “BCF 0.5µM” value is given as 2.103 L/kg and the “BCF 5µM” value came out at 2.0 ± 0.40 L/kg. Besides, the Kd in data set [3] is 252 µM. In data set [2] (setting [4]), the “pericardial oedemata, Mean” value came to 1.11%; the “spinal curvature, Mean” value is given as 0.00%; the “tail dysplasia, Mean” value was 1.11%. In data set [2] (5 µM, exposure through 120 hpf), the “Mortality (%)” value is 2.2%.

Regarding `O=S(=O)(O)CCC(F)(F)C(F)(F)C(F)(F)C(F)(F)F` [compound 15, 4:2 Fluorotelomer sulfonic acid], in data set [1], the “BCF 0.5µM” value stood at 5.68 L/kg and the “BCF 5µM” value is recorded as 2.5 ± 0.13 L/kg. Also, in data set [2] (in vivo), the “Mortality (%)” value amounted to 0; the “pericardial oedemata, Mean” value was 1.11%; the “spinal curvature, Mean” value turned out to be 0.00%; the “tail dysplasia, Mean” value worked out at 0.00%.

Turning to `OCC(F)(F)C(F)(F)C(F)(F)CO` [compound 35, Hexafluoroamylene glycol], in data set [1], the “BCF 0.5µM” value turned out to be 1.573 L/kg and the “BCF 5µM” value stood at 1.1 ± 0.09 L/kg. In data set [2] (setting [4]), the “pericardial oedemata, Mean” value was found to be 1.11%; the “spinal curvature, Mean” value was found to be 4.44%; the “tail dysplasia, Mean” value is 0.00%. Further, the “Mortality (%)” value in data set [2] (5 µM, exposure through 120 hpf) came to 0%.

Turning to `CCNS(=O)(=O)C(F)(F)C(F)(F)C(F)(F)C(F)(F)C(F)(F)C(F)(F)C(F)(F)C(F)(F)F` [compound 24, N-Ethylperfluorooctanesulfonamide], in data set [1], the “BCF 0.5µM” value stood at 28.4424 L/kg and the “BCF 5µM” value was determined as 24 ± 2.9 L/kg. In data set [2] (setting [4]), the “pericardial oedemata, Mean” value is reported as 1.11%; the “spinal curvature, Mean” value turned out to be 1.11%; the “tail dysplasia, Mean” value stood at 1.11%. For the same compound, the “Lethal effects on zebrafish larvae” value in data set [2] (5μM, 5 d) is listed as “did not cause significant lethal effects”. The “Mortality (%)” value in data set [2] (5 µM, exposure through 120 hpf) was 3.3%.

With `OCC(F)(F)C(F)(F)C(F)(F)C(F)F` [compound 48, 1H,1H,5H-Perfluoropentanol], in data set [3], the Kd is 916 µM. Moreover, in data set [2] (setting [4]), the “pericardial oedemata, Mean” value worked out at 4.44%; the “spinal curvature, Mean” value came to 6.67%; the “tail dysplasia, Mean” value was 1.11%. In addition, the “Mortality (%)” value in data set [2] (5 µM, exposure through 120 hpf) amounted to 1.1%.

With `O=S(=O)([O-])C(F)(F)C(F)(F)C(F)(F)C(F)(F)C(F)(F)C(F)(F)C(F)(F)C(F)(F)F.[K+]` [compound 6, Potassium perfluorooctanesulfonate], in data set [1], the “BCF 0.5µM” value is 288 ± 99 L/kg and 287.815 L/kg; the “BCF 5µM” value amounted to 82 ± 9.2 L/kg. Further, in data set [3], the Kd is 8.1 µM. In data set [2] (setting [4]), the “pericardial oedemata, Mean” value is on record as 1.11%; the “spinal curvature, Mean” value amounted to 2.22%; the “tail dysplasia, Mean” value came to 1.11%. Besides, the “Mortality (%)” value in data set [2] (5 µM, exposure through 120 hpf) was 2.2%.

On to `N.O=C(O)C(F)(F)C(F)(F)C(F)(F)C(F)(F)C(F)(F)C(F)(F)C(F)(F)F` [compound 21, Ammonium perfluorooctanoate], for which, in data set [1], the “BCF 0.5µM” value turned out to be 42.5265 L/kg and the “BCF 5µM” value amounted to 21 ± 0.42 L/kg. In data set [3], the Kd was 18.7 µM. Also, in data set [2] (setting [4]), the “pericardial oedemata, Mean” value was found to be 2.22%; the “spinal curvature, Mean” value stood at 1.11%; the “tail dysplasia, Mean” value is recorded as 2.22%. The “Mortality (%)” value in data set [2] (5 µM, exposure through 120 hpf) is given as 0%.

With `O=S(=O)(O)C(F)(F)C(F)(F)C(F)(F)C(F)(F)F` [compound 73, Perfluorobutanesulfonic acid], in data set [1], the “BCF 0.5µM” value is reported as 2.903 L/kg and the “BCF 5µM” value came to 2.8 ± 0.47 L/kg. The Kd in data set [3] is 116 µM. In data set [2] (setting [4]), the “pericardial oedemata, Mean” value was determined as 0.00%; the “spinal curvature, Mean” value was found to be 1.11%; the “tail dysplasia, Mean” value is on record as 0.00%. Further, the “Mortality (%)” value in data set [2] (5 µM, exposure through 120 hpf) is recorded as 5.6%.

As for `OCC(F)(F)C(F)(F)C(F)(F)C(F)(F)C(F)(F)C(F)(F)C(F)(F)C(F)(F)C(F)(F)C(F)(F)C(F)(F)F` [compound 50, 11:1 Fluorotelomer alcohol], the “BCF 5µM” value in data set [1] was 1.7 ± 0.23 L/kg. In data set [2] (setting [4]), the “pericardial oedemata, Mean” value came to 1.11%; the “spinal curvature, Mean” value came to 0.00%; the “tail dysplasia, Mean” value turned out to be 1.11%. Further, in data set [2] (5 µM, exposure through 120 hpf), the “Mortality (%)” value was determined as 1.1%.

As to `O=S(=O)([O-])C(F)(F)C(F)(F)C(F)(F)C(F)(F)F.[K+]` [compound 57, Potassium perfluorobutanesulfonate], in data set [1], the “BCF 0.5µM” value was 4.038 L/kg and the “BCF 5µM” value came to 3.0 ± 0.54 L/kg. In addition, in data set [3], the Kd is 125 µM. In addition, in data set [2] (setting [4]), the “pericardial oedemata, Mean” value was determined as 1.11%; the “spinal curvature, Mean” value came out at 0.00%; the “tail dysplasia, Mean” value is listed as 0.00%. For the same compound, the “Mortality (%)” value in data set [2] (5 µM, exposure through 120 hpf) is reported as 2.2%.

For `O=C(O)C=C(C(F)(F)F)C(F)(F)F` [compound 23, 3,3-Bis(trifluoromethyl)-2-propenoic acid], in data set [1], the “BCF 0.5µM” value is listed as 1.831 L/kg and the “BCF 5µM” value stood at 0.69 ± 0.29 L/kg. In data set [2] (setting [4]), the “pericardial oedemata, Mean” value was 1.11%; the “spinal curvature, Mean” value is 3.33%; the “tail dysplasia, Mean” value amounted to 3.33%. Also, the “Mortality (%)” value in data set [2] (5 µM, exposure through 120 hpf) was 2.2%.

These data come from PMC8294803, “A Roadmap to the Structure-Related Metabolism Pathways of Per- and Polyfluoroalkyl Substances in the Early Life Stages of Zebrafish (Danio rerio)” (Environmental Health Perspectives, 2021).
